Consider 20 compounds from ChEMBL document CHEMBL1141008, “Identification of small molecule agonists of the motilin receptor” (Bioorg Med Chem Lett, 2008).

Molecules are shown by their SMILES.

Data set [1] has as its target T1, Motilin receptor (Homo sapiens, UniProt O43193). The experiment in a line: Agonist activity at human recombinant motilin receptor expressed in CHO cells by calcium mobilization-based FLIPR assay. It is filed as functional, cell-based. For orientation: Calcium assays in cells follow changes in intracellular calcium, usually with a dye or a luminescent sensor.
For data set [2], the target named is T1, Motilin receptor. The experiment in a line: Agonist activity at human recombinant motilin receptor expressed in HEK293 cells by calcium mobilization-based FLIPR assay. The class given is functional, cell-based.
For data set [3], the target named is T1, Motilin receptor. The experiment in a line: Intrinsic activity at human recombinant motilin receptor expressed in CHO cells by calcium mobilization-based FLIPR assay relative to motilin. The class given is functional, cell-based.
Data set [4] is described as follows: Half life in New Zealand White rabbit gastric antrum at 3 uM. The class given is ADME, tissue-based, Oryctolagus cuniculus, Stomach.
The test system of data set [5] is Stomach. The experiment in a line: Increase in electric field stimulated contractile response in New Zealand White rabbit gastric antrum at 3 uM pre-incubated for 15 mins. It is filed as functional, Oryctolagus cuniculus.
Data set [6] deals with Growth hormone secretagogue receptor type 1 (Homo sapiens) (UniProt Q92847). Briefly: Activity at ghrelin receptor in human recombinant cells by calcium mobilization-based FLIPR assay.
Data set [7] can be described thus: Selectivity for human recombinant motilin receptor over ghrelin receptor in FLIPR assay.
The test system of data set [8] is Stomach. Briefly: Increase in electric field stimulated contractile response in New Zealand White rabbit gastric antrum at 10 uM pre-incubated for 15 mins. It is filed as functional, Oryctolagus cuniculus.
Data set [9] can be described thus: Half life in New Zealand White rabbit gastric antrum at 10 uM. The class given is ADME, tissue-based, Oryctolagus cuniculus, Stomach.
The nature of data set [10]: Half life in New Zealand White rabbit gastric antrum at 0.3 uM. The class given is ADME, tissue-based, Oryctolagus cuniculus, Stomach.
Data set [11] has as its system Stomach. The experiment in a line: Increase in electric field stimulated contractile response in New Zealand White rabbit gastric antrum at 0.3 uM preincubated for 15 mins. The class given is functional, Oryctolagus cuniculus.

T1 sequence (O43193 whole entry): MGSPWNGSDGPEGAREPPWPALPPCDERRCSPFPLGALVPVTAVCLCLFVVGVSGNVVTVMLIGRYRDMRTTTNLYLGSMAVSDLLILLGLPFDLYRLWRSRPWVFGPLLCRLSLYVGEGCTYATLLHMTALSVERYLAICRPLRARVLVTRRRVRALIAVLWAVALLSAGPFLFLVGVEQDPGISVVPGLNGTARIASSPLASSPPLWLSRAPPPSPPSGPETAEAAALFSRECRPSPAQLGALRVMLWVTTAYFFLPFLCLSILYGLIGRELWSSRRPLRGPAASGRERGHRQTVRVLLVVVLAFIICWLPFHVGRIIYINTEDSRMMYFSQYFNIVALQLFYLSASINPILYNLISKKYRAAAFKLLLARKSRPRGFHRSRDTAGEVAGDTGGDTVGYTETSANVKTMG
Chain of Growth hormone secretagogue receptor type 1 (Homo sapiens) (Q92847 whole entry, looked up): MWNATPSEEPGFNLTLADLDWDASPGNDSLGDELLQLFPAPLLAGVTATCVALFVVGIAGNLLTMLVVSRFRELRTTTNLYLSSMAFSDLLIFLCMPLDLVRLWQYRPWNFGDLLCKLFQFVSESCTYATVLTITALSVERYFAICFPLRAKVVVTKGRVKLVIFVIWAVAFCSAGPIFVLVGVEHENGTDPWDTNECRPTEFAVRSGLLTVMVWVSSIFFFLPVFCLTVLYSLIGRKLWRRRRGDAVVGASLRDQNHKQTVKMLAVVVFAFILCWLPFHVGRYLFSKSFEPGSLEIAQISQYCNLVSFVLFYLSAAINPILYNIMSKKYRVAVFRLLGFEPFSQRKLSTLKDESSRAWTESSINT

A word on the EC50: it is the concentration that produces a half-maximal response. For the compound `COc1cccc(CCN(Cc2ccccc2-c2ccc(CN3CCNCC3)cc2)C(=O)NC2CCCCC2)c1`, the results for the half-maximal effective concentration (EC50) on Motilin receptor [1] and at Motilin receptor [2] were 50.1 nM and 100 nM, respectively. In addition, at Motilin receptor [3], the Activity stood at 0.9.

As to `COc1cccc(CCN(Cc2ccccc2-c2ccc(CCN3CCNCC3)cc2)C(=O)NC2CCCCC2)c1`, on Motilin receptor [1], the half-maximal effective concentration (EC50) was greater than 12600 nM. Consider `O=C(NC1CCCCC1)N(CCc1ccccc1)Cc1ccccc1-c1cccc(CN2CCNCC2)c1`, for which, at Motilin receptor [2], the half-maximal effective concentration (EC50) was 1580 nM. With `COCCCN(Cc1ccccc1-c1ccc(CN2CCNCC2)cc1)C(=O)Cc1ccccc1`, at Motilin receptor [1], the EC50 was 794 nM. The Activity on Motilin receptor [3] is 0.7. In the case of `COCCCN(Cc1ccccc1-c1ccc(CN2CCN(C(C)=O)CC2)cc1)C(=O)Cc1ccccc1`, the concentration giving a half-maximal response (EC50) on Motilin receptor [1] was greater than 12600 nM. Regarding `COCCCN(Cc1ccccc1-c1ccc(CN2CCNCC2)cc1)C(C)=O`, the concentration for a half-maximal effect (EC50) on Motilin receptor [2] was 631 nM. As for `COc1cccc(CCN(Cc2ccccc2-c2ccc(N3CCNCC3)cc2)C(=O)NC2CCCCC2)c1`, at Motilin receptor [1], the EC50 is 5010 nM. Further, the Activity at Motilin receptor [3] was found to be 0.9. For `COCCCN(Cc1ccccc1-c1ccc(C(=O)N2CCNCC2)cc1)C(=O)Cc1ccccc1`, on Motilin receptor [1], the half-maximal effective concentration (EC50) was greater than 3160 nM. Regarding `COCCCN(Cc1ccccc1-c1ccc(CN2CCNCC2)cc1)S(=O)(=O)c1ccc(F)cc1`, at Motilin receptor [2], the EC50 is 631 nM. As to `COCCCN(Cc1ccccc1-c1ccc(CN(C)CCN(C)C)cc1)C(=O)Cc1ccccc1`, the EC50 on Motilin receptor [1] was 3160 nM. The Activity at Motilin receptor [3] came to 0.4. The matching figures for `COc1cccc(CCN(Cc2ccccc2-c2ccc(CC3CCNCC3)cc2)C(=O)NC2CCCCC2)c1`: 398 nM and 0.6. Broadly, the half-life is the time in which the quantity being followed falls by half. In the case of `CC[C@H]1OC(=O)[C@H](C)[C@@H](O[C@H]2C[C@@](C)(OC)[C@@H](O)[C@H](C)O2)[C@H](C)[C@@H](O[C@@H]2O[C@H](C)C[C@H](N(C)C)[C@H]2O)[C@](C)(O)C[C@@H](C)C(=O)[C@H](C)[C@@H](O)[C@]1(C)O` [ERYTHROMYCIN], the half-life at 3 µM in data set [4] worked out at 23 min. In the data set on Stomach [5], the Activity is reported as 490%. For `COc1cccc(CCNCc2ccccc2-c2ccc(CN3CCNCC3)cc2)c1`, the EC50 on Motilin receptor [2] was 5010 nM. For the compound `COCCCN(Cc1ccccc1-c1ccc(CN2CCOCC2)cc1)C(=O)Cc1ccccc1`, the 50% effective concentration (EC50) at Motilin receptor [1] is greater than 12600 nM.

As for `COc1cccc(CCN(Cc2ccccc2-c2ccc(CN3C[C@@H](C)N[C@@H](C)C3)cc2)C(=O)NC2CCCCC2)c1`, in data set [6], the EC50 was 126 nM. For the same compound, the fold change (FC) in [7] came out at 10. The Activity in the data set on Stomach [8] was determined as 182%; on Motilin receptor [3], 1. Moreover, in data set [9], the half-life at 10 µM turned out to be 39 min. Regarding `COCCCN(Cc1ccccc1-c1ccc(CN2CCCCC2)cc1)C(=O)Cc1ccccc1`, at Motilin receptor [1], the EC50 was greater than 12600 nM.

`COCCCN(Cc1ccccc1-c1ccc(CN2CCN(C)CC2)cc1)C(=O)Cc1ccccc1`: on Motilin receptor [1], the EC50 is greater than 12600 nM. `CC[C@H](C)[C@H](NC(=O)[C@@H]1CCCN1C(=O)[C@@H](NC(=O)[C@@H](N)Cc1ccccc1)C(C)C)C(=O)N[C@@H](Cc1ccccc1)C(=O)N[C@H](C(=O)N[C@@H](Cc1ccc(O)cc1)C(=O)NCC(=O)N[C@@H](CCC(=O)O)C(=O)N[C@@H](CC(C)C)C(=O)N[C@@H](CCC(N)=O)C(=O)N[C@@H](CCCN=C(N)N)C(=O)N[C@@H](CCSC)C(=O)N[C@@H](CCC(N)=O)C(=O)N[C@@H](CCC(=O)O)C(=O)N[C@@H](CCCCN)C(=O)N[C@@H](CCC(=O)O)C(=O)N[C@@H](CCCN=C(N)N)C(=O)N[C@@H](CC(N)=O)C(=O)N[C@@H](CCCCN)C(=O)NCC(=O)N[C@@H](CCC(N)=O)C(=O)O)[C@@H](C)O` [MOTILIN]: in data set [10], the half-life at 0.3 µM amounted to 9 min. In the data set on Stomach [11], the Activity amounted to 506%. Regarding `COCCCN(Cc1ccccc1-c1ccc(CN2CCNCC2)cc1)C(=O)NC1CCCCC1`, at Motilin receptor [2], the EC50 is 501 nM. Still for that read-out and setting: the figure for `COc1cccc(CCN(Cc2ccccc2-c2ccc(CN3CCNCC3)cc2)C(=O)Cc2ccccc2)c1` is 1000 nM.
